Data: US20090105278A1, “Selective inhibitors of human corticosteroid syntheses” (Universitat Des Saarlandes, priority 2004, published 2009)

Experiments:
Format in all cases: cell-based
[1] = biological target: T1, human CYP11B1 (Homo sapiens, UniProt P15538); test: V79 MZh 11B1 cells inhibition test; conditions: for IC50: hamster fibroblasts which express human CYP11B1, deoxycorticosterone substrate 100 nM, read-out: IC50 V79 11B1 hCYP11B1
T1 construct: expressed in transfected cells; host or cells: V79 MZh11B1 (Chinese hamster lung fibroblasts)
T1 sequence (P15538 25-503): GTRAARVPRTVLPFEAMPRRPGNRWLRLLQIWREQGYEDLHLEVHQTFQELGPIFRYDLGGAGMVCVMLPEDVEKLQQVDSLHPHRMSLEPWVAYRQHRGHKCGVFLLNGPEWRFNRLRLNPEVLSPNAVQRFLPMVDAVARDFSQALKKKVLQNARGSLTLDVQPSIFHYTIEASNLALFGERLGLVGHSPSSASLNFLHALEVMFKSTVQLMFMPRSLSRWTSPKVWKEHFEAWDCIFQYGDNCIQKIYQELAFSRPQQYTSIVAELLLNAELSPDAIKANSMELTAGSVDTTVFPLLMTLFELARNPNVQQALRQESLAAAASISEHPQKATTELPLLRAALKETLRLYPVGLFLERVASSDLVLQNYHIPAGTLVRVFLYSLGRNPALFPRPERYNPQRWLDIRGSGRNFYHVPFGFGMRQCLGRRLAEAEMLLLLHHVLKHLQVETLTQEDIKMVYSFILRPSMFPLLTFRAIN
Procedure: (§1) Both cell lines were cultured in DMEM^+ containing […] and the antibiotics penicillin and streptomycin (10%) for protection from bacterial contamination. The cells were passaged every 2-3 days after treatment with trypsin/EDTA because the doubling rate was 1-2 days depending on the number of cells. […] When there was further need, freshly thawed cells were employed.
Thereafter, the plate was stored at 37° C. and […] in a CO2 incubator. […] Controls without inhibitor were treated in the same way. The enzyme reactions were quenched by extracting the supernatant with 500 μl of EtOAc. The samples were centrifuged (10,000 g, 2 min), the solvent was removed and evaporated.
(§2) It was calculated by determining the percent inhibition for at least 3 different inhibitor concentrations, which must all be in the linear range of the sigmoidal IC50 curve (log C/% inhibition).
(§3) The calculation was effected by linear regression. The values determined were used only if they formed a straight line with a reliability of […].
(§4) The plate was developed twice with the mobile solvent chloroform:methanol:water (300:20:1). Unlabeled 11-deoxycorticosterone and corticosterone were applied as a reference for the CYP11B1 reaction. For the CYP11B2 reaction, 11-deoxycorticosterone, corticosterone, 18-hydroxycorticosterone and aldosterone were used as references. The detection of the unlabeled references was effected at 260 nm. Subsequently, imaging plates (BAS MS2340, for ^14C samples, Raytest, Straubenhardt, Germany) were exposed to the HPTLC plates for 48 h. The imaging plates were scanned with the phosphoimager system Fuji FLA 3000 (Raytest, Straubenhardt, Germany), and the steroids were quantified.

[2] = biological target: T2, human CYP11B2 (Homo sapiens, UniProt P19099); test: V79 MZh 11B2 cells inhibition test; parameters: expressed in transfected cells; host or cells: V79 MZh11B2 (Chinese hamster lung fibroblasts); conditions: for IC50: hamster fibroblasts which express human CYP11B2, deoxycorticosterone substrate 100 nM, read-out: IC50 V79 11B2 hCYP11B2
T2 sequence (P19099 25-503): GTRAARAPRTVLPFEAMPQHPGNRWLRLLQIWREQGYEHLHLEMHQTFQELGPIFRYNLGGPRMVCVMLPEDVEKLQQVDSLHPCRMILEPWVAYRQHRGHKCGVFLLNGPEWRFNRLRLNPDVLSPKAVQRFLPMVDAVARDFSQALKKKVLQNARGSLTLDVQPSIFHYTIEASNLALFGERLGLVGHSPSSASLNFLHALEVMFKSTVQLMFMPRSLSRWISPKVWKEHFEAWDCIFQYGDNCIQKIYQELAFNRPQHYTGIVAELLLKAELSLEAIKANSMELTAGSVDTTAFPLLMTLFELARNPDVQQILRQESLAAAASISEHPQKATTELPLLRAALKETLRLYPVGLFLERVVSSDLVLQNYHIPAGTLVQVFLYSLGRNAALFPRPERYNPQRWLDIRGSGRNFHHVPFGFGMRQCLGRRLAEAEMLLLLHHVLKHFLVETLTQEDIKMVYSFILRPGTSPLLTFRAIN
Procedure: as §1
Thereafter, the plate was stored at 37° C. and […] in a CO2 incubator. The V79 MZh 11B1 cells were incubated for 120 min, and the V79 MZh 11B2 cells were incubated for 40 min. Controls without inhibitor were treated in the same way. The enzyme reactions were quenched by extracting the supernatant with 500 μl of EtOAc. The samples were centrifuged (10,000 g, 2 min), the solvent was removed and evaporated.
For V79 MZh11B2, the conversion rate was obtained in accordance with equation 3: […]
as §2, §3, §4

[3] = biological target: T2, human CYP11B2; test: Screening test in transgenic fission yeast (S. pombe PE1) expressing human CYP11B2; parameters: expressed in transfected cells; conditions: S. pombe cells which express human CYP11B2; deoxycorticosterone substrate 100 nM; inhibitor 500 nM
Procedure: 492.5 μl of this cell suspension was admixed with 5 μl of inhibitor solution (50 μM of the compound to be tested in ethanol or DMSO) and incubated at 32° C. for 15 min. Controls were admixed with 5 μl of ethanol. […] The test was quenched by extracting the sample with 500 μl of EtOAc. After centrifugation (10,000 g, 2 min), the EtOAc phase was removed and evaporated to dryness. […] The reaction of the substrate to form corticosterone was analyzed by HPTLC (see below).
The quantification of the spots for the substrate deoxycorticosterone and the products corticosterone (and, if detectable, 18-hydroxycorticosterone and aldosterone) was effected with the related evaluation program AIDA. […] The calculation of the conversion rate was effected according to equation 1.
as §4

Row | Inhibition of human CYP11B1, in words ([1]; V79 cells) | Selectivity factor IC50 (CYP11B1)/IC50 (CYP11B2) ([2]; V79 cells expressing human CYP11B1 or CYP11B2) | SMILES | IC50 [1] | IC50 [2] | % Inhibition human hCYP11B2 [3]
1 | very weak inhibition | 245 | c1cncc(-c2ccc3cccc4c3c2CC4)c1 [Compound 50, 3-(1,2-Dihydroacenaphthylene-3-yl)pyridine] | 2450 nM | 10 nM | 
2 |  |  | C/C(=C1/CCc2ccccc21)c1cccnc1.Cl [Compound 38a, 3-[(1E)-1-(2,3-Dihydro-1H-indane-1-ylidene)ethyl]pyridine Hydrochloride] | 159 nM | 96.1 nM | 67%
